Reference: ChEMBL document CHEMBL1201862, “PubChem BioAssay data set” (2004)
The source made the active and inactive calls.

Tests used:
[1] = target: Alkaline phosphatase, placental type (Homo sapiens, UniProt P05187); assay: human placental alkaline phosphatase inhibition – biochemical, luminescence, confirmation (AID 1512); type: functional
[2] = target: Glyceraldehyde-3-phosphate dehydrogenase (Homo sapiens, UniProt P04406)
HEK293 = assay: EBV LMP1 TES2 canonical NF-kB signalling blockers – cell-based, HEK293, luciferase, cherry-pick, dose response (AID 588343); type: functional; conditions: Homo sapiens
[3] = target: Nuclear receptor subfamily 0 group B member 1 (Homo sapiens, UniProt P51843); type: functional, cell-based;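 note: HEK293T cells transfected with SF-1 and DAX-1 plus StAR promoter luciferase reporter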
Nuclear receptor subfamily 0 group B member 1, sequence (P51843 whole entry): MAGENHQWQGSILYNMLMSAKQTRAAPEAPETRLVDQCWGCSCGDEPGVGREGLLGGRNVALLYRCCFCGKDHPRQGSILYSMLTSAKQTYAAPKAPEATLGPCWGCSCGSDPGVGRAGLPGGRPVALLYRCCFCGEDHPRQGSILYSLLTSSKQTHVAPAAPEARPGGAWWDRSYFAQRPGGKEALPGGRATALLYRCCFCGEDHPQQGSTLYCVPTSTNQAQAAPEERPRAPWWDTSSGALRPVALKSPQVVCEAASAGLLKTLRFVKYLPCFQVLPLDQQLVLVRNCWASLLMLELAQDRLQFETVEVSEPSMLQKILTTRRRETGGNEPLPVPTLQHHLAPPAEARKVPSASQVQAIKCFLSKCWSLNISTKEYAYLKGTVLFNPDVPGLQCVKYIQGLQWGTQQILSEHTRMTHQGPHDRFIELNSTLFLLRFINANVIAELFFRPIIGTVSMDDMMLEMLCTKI

[4] = target: T1, Sentrin-specific protease 7 (Homo sapiens, UniProt Q9BQF6); type: functional;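 note: Luminescence-based dose-response confirmation of ultra-high-throughput screening hits, measuring inhibition of SENP7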
T1 sequence (Q9BQF6 whole entry): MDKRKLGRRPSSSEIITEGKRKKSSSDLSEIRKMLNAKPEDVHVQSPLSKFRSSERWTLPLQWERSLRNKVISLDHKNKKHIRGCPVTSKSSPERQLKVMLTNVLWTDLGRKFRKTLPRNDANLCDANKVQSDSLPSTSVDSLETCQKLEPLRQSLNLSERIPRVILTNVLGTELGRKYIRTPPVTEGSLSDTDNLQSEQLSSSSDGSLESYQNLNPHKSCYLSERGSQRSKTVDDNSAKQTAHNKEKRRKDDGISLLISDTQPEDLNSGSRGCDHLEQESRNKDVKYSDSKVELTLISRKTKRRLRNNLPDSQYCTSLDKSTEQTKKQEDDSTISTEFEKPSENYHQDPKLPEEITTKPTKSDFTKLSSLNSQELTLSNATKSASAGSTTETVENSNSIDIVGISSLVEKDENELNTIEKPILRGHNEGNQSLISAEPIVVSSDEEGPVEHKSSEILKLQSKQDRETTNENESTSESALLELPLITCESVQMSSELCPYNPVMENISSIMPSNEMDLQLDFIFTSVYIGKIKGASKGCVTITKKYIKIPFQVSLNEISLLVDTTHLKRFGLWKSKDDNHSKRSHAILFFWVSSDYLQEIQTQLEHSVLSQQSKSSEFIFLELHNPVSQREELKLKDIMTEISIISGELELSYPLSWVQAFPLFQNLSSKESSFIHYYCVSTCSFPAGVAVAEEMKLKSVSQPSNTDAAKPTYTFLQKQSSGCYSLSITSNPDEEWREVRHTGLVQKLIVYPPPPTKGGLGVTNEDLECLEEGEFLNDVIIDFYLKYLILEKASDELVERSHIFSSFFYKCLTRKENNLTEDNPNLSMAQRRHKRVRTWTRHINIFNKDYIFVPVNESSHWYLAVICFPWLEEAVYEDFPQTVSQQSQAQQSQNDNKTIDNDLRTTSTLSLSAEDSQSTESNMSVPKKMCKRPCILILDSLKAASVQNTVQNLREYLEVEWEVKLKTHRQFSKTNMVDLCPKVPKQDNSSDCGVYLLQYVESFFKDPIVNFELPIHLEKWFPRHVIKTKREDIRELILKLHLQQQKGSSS

Caspase-3 = target: T2, Caspase-3 (Homo sapiens, UniProt P42574); type: functional;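 note: Dose-response selectivity test against caspase-3 for candidate inhibitors of sentrin-specific proteases (SENPs)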
T2 sequence (P42574 whole entry): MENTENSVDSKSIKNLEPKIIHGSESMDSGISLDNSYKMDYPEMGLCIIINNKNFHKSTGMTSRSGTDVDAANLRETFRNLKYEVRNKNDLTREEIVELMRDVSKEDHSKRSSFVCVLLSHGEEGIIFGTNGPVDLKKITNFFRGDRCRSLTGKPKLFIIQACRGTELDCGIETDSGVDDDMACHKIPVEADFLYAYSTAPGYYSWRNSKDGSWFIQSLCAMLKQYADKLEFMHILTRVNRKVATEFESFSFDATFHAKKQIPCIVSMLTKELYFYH

cells = type: functional, cell-based
[5] = target: T3, Sentrin-specific protease 8 (Homo sapiens, UniProt Q96LD8); type: functional;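 note: luminescence read-out of SENP8 inhibition, dose-response confirmation following an ultra-high-throughput screen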
T3 sequence (Q96LD8 whole entry): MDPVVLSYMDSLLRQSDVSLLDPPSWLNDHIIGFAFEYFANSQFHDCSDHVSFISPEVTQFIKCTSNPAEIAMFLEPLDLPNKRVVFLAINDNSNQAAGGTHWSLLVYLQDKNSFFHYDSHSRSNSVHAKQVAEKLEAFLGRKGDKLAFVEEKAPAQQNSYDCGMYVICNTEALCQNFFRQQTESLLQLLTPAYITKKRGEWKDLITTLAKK

[6] = target: T4, Sentrin-specific protease 6 (Homo sapiens, UniProt Q9GZR1); type: functional;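 note: Luminescence-based dose-response confirmatory assay of SENP6 inhibition, following up an ultra-high-throughput screen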
T4 sequence (Q9GZR1 whole entry): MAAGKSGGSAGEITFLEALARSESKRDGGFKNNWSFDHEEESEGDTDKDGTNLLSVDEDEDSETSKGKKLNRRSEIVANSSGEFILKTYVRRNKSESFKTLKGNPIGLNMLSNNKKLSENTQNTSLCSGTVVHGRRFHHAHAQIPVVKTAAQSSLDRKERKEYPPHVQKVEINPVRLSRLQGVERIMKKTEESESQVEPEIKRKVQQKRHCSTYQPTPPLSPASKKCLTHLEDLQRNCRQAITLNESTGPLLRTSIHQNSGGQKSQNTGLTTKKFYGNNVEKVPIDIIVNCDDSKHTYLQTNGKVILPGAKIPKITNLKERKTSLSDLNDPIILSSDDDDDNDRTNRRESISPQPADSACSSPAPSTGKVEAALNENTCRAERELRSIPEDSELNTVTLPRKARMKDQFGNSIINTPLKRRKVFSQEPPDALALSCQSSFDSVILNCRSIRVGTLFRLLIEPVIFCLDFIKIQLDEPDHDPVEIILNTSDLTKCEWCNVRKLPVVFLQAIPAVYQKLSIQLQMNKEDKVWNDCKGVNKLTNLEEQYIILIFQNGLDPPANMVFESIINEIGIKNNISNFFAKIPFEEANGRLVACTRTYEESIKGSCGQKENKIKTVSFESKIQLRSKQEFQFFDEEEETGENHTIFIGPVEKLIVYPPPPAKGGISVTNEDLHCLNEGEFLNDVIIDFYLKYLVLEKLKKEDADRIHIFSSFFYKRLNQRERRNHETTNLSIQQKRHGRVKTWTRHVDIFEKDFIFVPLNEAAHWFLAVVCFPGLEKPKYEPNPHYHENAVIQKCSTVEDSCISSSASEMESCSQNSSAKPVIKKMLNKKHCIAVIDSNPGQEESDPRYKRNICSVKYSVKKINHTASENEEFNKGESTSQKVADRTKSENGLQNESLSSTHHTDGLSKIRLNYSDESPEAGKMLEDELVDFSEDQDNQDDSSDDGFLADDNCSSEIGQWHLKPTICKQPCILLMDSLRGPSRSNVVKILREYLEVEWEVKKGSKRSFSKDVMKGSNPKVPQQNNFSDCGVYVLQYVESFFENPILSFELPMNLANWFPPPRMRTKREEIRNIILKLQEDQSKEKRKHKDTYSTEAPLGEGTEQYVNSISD

Protein RecA = target: T5, Protein RecA (Mycobacterium tuberculosis, UniProt P9WHJ3); assay: Fluorescence Cell-Free Homogeneous Dose Retest to Identify Inhibitors of RecA-Intein Splicing Activity. [Related pubchem assays (depositor defined):AID2097, AID2223, AID489010, AID492950]; type: functional
T5 sequence (P9WHJ3 whole entry): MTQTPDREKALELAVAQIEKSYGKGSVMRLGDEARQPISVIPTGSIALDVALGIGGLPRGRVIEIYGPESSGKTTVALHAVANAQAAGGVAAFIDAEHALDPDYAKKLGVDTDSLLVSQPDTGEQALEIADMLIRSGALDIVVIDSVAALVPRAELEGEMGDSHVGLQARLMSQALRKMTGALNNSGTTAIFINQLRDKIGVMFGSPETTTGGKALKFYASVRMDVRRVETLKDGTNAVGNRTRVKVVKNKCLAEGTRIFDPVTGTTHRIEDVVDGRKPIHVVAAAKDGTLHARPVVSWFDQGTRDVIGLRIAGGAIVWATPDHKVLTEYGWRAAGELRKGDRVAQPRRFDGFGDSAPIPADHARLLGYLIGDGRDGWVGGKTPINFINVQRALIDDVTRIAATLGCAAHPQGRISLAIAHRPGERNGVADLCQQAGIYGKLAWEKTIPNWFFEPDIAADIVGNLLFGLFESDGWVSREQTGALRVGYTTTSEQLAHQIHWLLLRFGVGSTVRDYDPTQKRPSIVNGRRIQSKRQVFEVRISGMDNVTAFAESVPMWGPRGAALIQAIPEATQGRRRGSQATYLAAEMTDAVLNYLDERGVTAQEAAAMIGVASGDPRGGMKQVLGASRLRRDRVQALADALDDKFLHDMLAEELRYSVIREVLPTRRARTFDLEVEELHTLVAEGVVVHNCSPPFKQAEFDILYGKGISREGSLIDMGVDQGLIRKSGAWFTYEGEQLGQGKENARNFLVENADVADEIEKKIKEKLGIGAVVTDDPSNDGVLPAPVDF

[7] = target: T6, Heat shock factor protein 1 (Mus musculus, UniProt P38532); assay: enhancement of HSF1-driven luciferase signal – cell-based, NIH3T3, luminescence, dose retest, confirmation (AID 435004); type: functional;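 note: stress induced by proteasome inhibitor MG132 added 30 min after compound; luciferase reporter driven by HSF1 response element in NIH3T3 cells; actives raise luminescence as potentiators of the MG132 stress response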
T6 sequence (P38532 whole entry): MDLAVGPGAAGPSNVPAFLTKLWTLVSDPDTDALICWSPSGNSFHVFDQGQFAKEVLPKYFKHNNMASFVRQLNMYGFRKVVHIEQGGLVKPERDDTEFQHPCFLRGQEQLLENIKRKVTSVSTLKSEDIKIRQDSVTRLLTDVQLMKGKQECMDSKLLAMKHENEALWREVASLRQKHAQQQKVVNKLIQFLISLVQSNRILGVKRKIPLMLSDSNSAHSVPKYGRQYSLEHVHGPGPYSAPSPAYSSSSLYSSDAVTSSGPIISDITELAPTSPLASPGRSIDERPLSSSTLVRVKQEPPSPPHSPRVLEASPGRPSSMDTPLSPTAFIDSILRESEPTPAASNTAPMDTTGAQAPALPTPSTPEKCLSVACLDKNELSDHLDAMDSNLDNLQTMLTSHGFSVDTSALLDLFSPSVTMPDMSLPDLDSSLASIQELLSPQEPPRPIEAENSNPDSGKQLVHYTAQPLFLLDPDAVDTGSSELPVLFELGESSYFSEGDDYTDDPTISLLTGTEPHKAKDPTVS

[8] = target: T7, Replicative DNA helicase DnaB (Mycobacterium tuberculosis, UniProt P9WMR3); assay: DnaB intein splicing inhibitors, dose response, biochemical, cell-free fluorescence (AID 449749); type: functional
T7 sequence (P9WMR3 whole entry): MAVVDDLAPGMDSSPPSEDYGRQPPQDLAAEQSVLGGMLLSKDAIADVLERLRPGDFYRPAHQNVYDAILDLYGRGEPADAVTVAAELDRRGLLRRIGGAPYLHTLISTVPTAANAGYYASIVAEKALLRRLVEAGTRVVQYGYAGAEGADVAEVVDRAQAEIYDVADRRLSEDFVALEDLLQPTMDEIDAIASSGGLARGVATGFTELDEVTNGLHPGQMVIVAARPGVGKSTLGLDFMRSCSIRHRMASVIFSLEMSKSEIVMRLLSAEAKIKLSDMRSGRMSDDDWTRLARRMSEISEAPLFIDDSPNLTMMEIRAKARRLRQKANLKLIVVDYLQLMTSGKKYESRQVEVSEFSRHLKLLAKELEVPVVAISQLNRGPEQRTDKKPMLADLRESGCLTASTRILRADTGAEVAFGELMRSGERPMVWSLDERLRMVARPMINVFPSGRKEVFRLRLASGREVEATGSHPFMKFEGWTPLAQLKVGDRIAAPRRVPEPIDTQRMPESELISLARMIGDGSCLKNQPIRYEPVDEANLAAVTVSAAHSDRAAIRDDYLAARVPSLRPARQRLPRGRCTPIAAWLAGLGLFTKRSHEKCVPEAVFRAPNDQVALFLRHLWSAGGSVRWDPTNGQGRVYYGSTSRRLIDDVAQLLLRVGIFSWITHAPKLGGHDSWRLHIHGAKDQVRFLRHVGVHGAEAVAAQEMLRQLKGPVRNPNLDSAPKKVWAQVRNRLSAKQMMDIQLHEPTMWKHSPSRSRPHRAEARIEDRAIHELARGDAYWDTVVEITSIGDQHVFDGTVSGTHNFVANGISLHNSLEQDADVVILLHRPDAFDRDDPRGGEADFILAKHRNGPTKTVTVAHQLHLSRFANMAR

[9] = target: G-protein coupled receptor 55 (Homo sapiens, UniProt Q9Y2T6); assay: inhibition of LPI-stimulated GPR55 beta-arrestin translocation – imaging, U2OS, beta-arrestin-GFP, LPI agonist, primary screen (AID 2013); type: functional;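 note: antagonist potency measured as reduced agonist-driven arrestin aggregation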
G-protein coupled receptor 55, sequence (Q9Y2T6 whole entry): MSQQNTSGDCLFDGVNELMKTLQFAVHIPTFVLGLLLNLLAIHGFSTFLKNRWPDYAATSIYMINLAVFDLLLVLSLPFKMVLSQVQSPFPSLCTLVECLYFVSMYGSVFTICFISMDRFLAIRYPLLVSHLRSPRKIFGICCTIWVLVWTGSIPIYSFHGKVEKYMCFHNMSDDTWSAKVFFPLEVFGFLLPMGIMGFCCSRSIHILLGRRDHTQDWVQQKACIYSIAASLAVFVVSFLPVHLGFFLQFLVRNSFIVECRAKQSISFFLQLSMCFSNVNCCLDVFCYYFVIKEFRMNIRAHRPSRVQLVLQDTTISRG

[10] = target: T8, Tyrosine-protein phosphatase non-receptor type 7 (Homo sapiens, UniProt P35236); assay: SAR analysis of chemical inhibitors of HePTP using a Fluorescent assay - Set 2. [Related pubchem assays (depositor defined):AID1059, AID1077, AID1661, AID2085, AID521]; type: functional
T8 sequence (P35236 whole entry): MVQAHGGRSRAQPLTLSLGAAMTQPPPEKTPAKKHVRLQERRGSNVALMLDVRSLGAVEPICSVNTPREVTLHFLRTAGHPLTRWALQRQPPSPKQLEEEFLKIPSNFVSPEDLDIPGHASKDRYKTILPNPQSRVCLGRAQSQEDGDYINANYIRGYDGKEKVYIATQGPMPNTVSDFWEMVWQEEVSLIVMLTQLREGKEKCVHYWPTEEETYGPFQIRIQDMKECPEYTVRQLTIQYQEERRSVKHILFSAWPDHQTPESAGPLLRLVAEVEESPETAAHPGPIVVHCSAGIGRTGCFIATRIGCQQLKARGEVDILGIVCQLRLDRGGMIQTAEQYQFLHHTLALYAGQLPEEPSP

[11] = target: Dual specificity protein phosphatase 3 (Homo sapiens, UniProt P51452); assay: SAR VHR1 Fluorescent Assay for In Vitro dose response studies Set 2. [Related pubchem assays (depositor defined):AID1654, AID1661, AID1878]; type: functional
Dual specificity protein phosphatase 3, sequence (P51452 whole entry): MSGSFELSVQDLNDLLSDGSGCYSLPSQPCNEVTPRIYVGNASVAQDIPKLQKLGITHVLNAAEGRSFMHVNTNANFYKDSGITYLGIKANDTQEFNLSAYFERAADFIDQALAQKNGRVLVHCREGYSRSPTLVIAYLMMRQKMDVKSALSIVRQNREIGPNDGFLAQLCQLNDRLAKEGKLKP

Glyceraldehyde-3-phosphate dehydrogenase, sequence (P04406 whole entry): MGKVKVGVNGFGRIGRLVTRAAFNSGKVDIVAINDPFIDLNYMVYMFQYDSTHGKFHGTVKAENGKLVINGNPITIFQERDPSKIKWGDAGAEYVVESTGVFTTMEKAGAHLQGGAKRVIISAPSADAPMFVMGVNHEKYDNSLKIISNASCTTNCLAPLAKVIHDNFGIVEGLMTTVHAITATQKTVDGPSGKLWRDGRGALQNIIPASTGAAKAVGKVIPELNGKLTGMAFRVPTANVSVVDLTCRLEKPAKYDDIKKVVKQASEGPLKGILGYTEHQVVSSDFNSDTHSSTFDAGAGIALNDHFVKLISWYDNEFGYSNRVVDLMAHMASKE
Alkaline phosphatase, placental type, sequence (P05187 whole entry): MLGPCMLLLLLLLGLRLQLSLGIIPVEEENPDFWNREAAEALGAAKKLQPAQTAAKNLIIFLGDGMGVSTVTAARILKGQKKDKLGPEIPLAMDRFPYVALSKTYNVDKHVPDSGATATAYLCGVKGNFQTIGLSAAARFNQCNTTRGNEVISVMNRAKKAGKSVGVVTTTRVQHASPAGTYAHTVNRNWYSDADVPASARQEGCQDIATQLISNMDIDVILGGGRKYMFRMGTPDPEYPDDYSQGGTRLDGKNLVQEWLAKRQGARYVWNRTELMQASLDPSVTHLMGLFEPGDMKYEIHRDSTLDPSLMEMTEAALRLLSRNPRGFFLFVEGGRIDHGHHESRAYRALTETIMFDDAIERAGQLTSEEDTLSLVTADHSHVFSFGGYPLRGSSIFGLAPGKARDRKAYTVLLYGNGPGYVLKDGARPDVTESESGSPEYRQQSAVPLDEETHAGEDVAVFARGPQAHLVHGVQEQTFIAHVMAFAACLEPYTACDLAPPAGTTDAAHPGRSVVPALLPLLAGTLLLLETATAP

## O=C(c1cc(-c2ccc(Cl)cc2Cl)n[nH]1)N1CCCCCC1
[1]
  IC50: > 100 µM (inactive)
[2]
  IC50: > 100 µM (not active)

## Cc1ccn2c(c1)nc(=S)n2C(=O)c1ccccc1
HEK293
  AC50: 0.814 µM (active)
[3]
  IC50: > 0.0926 µM (active)
[4]
  IC50: 4.09 µM (active)
Caspase-3
  IC50: 46.5 µM (active)
cells
  IC50: > 67.5 µM (inactive)
[5]
  IC50: 94.9 µM (active)
[6]
  IC50: 72.3 µM (active)

## Clc1ncnc2scc(C3COc4ccccc4O3)c12 (stereo not given)
Protein RecA
  EC50: 3.97 µM (active)
[7]
  EC50: 21.4 µM (active)
[8]
  AC50: 7.16 µM (active)
[9]
  IC50: 3.38 µM (active)

## O=S(=O)(c1ccc(NC(=S)N2CCN(Cc3ccc4c(c3)OCO4)CC2)cc1)N1CCOCC1
[10]
  IC50: 79.6 µM (active)
[11]
  IC50: > 100 µM (inactive)
